From patent publication US4351948A, “Imidazole hydrazone derivatives” (priority 1980, dated 1982)
In brackets after ≈: the same amount, converted by molar mass. Where a name gives a salt, the structure may show the parent alone. Read-outs that look alike come from different tables or passages of the source.

Tests used:
candida albicans = assay: Oral treatment: recovery of viable candida albicans from the kidneys of infected mice; type: in vivo
Excerpt: Effect of oral treatment with HC274, HC316, HC390, HC415 and Ketoconazole on the recovery of viable candida albicans from the kidneys of infected mice.

in vivo = conditions: male mice, 7 day
[1] = tested on: C. perfringens (ATCC 13124); assay: microbe, parasite or virus in culture; type: cell-based; conditions: Clostridium perfringens, ATCC13124, 24 h
C. sporogenes ATCC 19404 = assay: Antianaerobic activity, MIC by standard broth dilution method (Table II); type: cell-based; conditions: Clostridium sporogenes, ATCC19404, 24 h, read-out: Minimal Inhibitory Concentration (MIC)
Protocol: (§1) The activity of the compounds identified in the Table II below was tested for antianaerobic activity against one strain of Bacteroides fragilis, one strain of Bacteroides uniformis, one strain of Clostridium sporogenes and one strain of Trichomonas vaginalis as the test organism. The methods used involved determining the minimum inhibitory concentration by the standard broth dilution method. The values for metronidazole (2-methyl-5-nitro-1H-imidazole-1-ethanol) are given above for reference purposes. For convenience the compounds are referred to by an internal reference number (an HC number) and this is correlated with the number of the Example wherein its production is described.

B. fragilis ATCC 23745 = assay: as above; type: cell-based; conditions: Bacteroides fragilis, ATCC23745, 24 h, read-out: Minimal Inhibitory Concentration (MIC)
Protocol: as §1, with “The values for metronidazole (2-methyl-5-nitro-1H-imidazole-1-ethanol) are given above for reference purposes.” left out

B. uniformis ATCC 8492 = assay: as above; type: cell-based; conditions: Bacteroides uniformis, ATCC8492, 24 h, read-out: Minimal Inhibitory Concentration (MIC)
Protocol: as §1, with “The values for metronidazole (2-methyl-5-nitro-1H-imidazole-1-ethanol) are given above for reference purposes.” left out

T. vaginalis ATCC 30001 = assay: as above; type: cell-based; conditions: Trichomonas vaginalis, ATCC30001, 24 h, read-out: Minimal Inhibitory Concentration (MIC)
Protocol: as §1, with “The values for metronidazole (2-methyl-5-nitro-1H-imidazole-1-ethanol) are given above for reference purposes.” left out

[2] = tested on: Clostridium sporogenes ATCC 19404; assay: Minimal inhibitory concentration against anaerobic bacteria; type: cell-based; conditions: ATCC19404, 24 h
[3] = tested on: Bacteroides fragilis ATCC 23745; assay: as above; conditions: ATCC23745, 24 h
[4] = tested on: Bacteroides uniformis ATCC 8492; assay: as above; conditions: ATCC8492, 24 h
[5] = tested on: Desulfovibrio desulfuricans API-CORE; assay: as above; conditions: 24 h
[6] = tested on: Desulfovibrio desulfuricans API-BREWER; assay: as above; conditions: 24 h
[7] = tested on: Desulfovibrio desulfuricans API-SW2; assay: as above; conditions: for Minimal Inhibitory Concentration: 24 hours at 37° C.
[8] = read-out: Minimal Inhibitory Concentration, Test 1, 24 hours at 37° C.
[9] = read-out: Minimal Inhibitory Concentration, Test 2, 24 hours at 37° C.
[10] = read-out: Minimal Inhibitory Concentration, Test 3, 24 hours at 37° C.

Compound	Recovery of C.albicans (as percentage of control) (candida albicans; 5 mg/kg)	Recovery of C.albicans (as percentage of control) (candida albicans; 20 mg/kg)	MIC [1]	MIC (C. sporogenes ATCC 19404; Test 1)	MIC (C. sporogenes ATCC 19404; Test 2)	MIC (C. sporogenes ATCC 19404; Test 3)	MIC (B. fragilis ATCC 23745; Test 1)	MIC (B. fragilis ATCC 23745; Test 2)	MIC (B. fragilis ATCC 23745; Test 3)	MIC (B. uniformis ATCC 8492; Test 1)	MIC (B. uniformis ATCC 8492; Test 2)	MIC (B. uniformis ATCC 8492; Test 3)	MIC (T. vaginalis ATCC 30001; Test 1)	MIC (T. vaginalis ATCC 30001; Test 2)	MIC (T. vaginalis ATCC 30001; Test 3)	further results
Clc1ccc(/C(Cn2ccnc2)=N/Nc2c(Cl)cccc2Cl)s1 [HC390, (E)-1-(5-chlorothienyl-2-yl)-2-(1H-imidazol-1-yl)ethanone, 2,6-dichlorophenylhydrazone, hydrochloride]	57.3 percentage of control	41.1 percentage of control	3.1 mg/L	2.5 mg/L	5 mg/L	7.5 mg/L	5 mg/L	2.5 mg/L	2.5 mg/L	2.5 mg/L	2.5 mg/L	2.5 mg/L	> 50 mg/L	> 50 mg/L	> 50 mg/L	LD50 at 168 h (in vivo; mouse, in vivo, ip, read-out: LD50): 610 mg/kg; LD12.5 (in vivo; p.o.): > 1500 mg/kg
Cc1ncc([N+](=O)[O-])n1CCO [Metronidazole, 2-methyl-5-nitro-1H-imidazole-1-ethanol, reference compound]			0.3 mg/L (≈ 1.75 µM)													MIC ([2]; Test 1, 24 hours at 37° C.): 0.5 mg/L (≈ 2.92 µM); MIC ([2]; Test 2, 24 hours at 37° C.): 0.25 mg/L (≈ 1.46 µM); MIC ([2]; Test 3, 24 hours at 37° C.): 0.75 mg/L (≈ 4.38 µM); MIC [3, 8]: 0.75 mg/L (≈ 4.38 µM); MIC [3, 9]: 0.75 mg/L (≈ 4.38 µM); MIC [3, 10]: 0.5 mg/L (≈ 2.92 µM); MIC [4, 8]: 0.5 mg/L (≈ 2.92 µM); MIC [4, 9]: 0.25 mg/L (≈ 1.46 µM); MIC [4, 10]: 0.25 mg/L (≈ 1.46 µM); MIC [5, 8]: 0.5 mg/L (≈ 2.92 µM); MIC [5, 9]: 0.25 mg/L (≈ 1.46 µM); MIC [5, 10]: 0.25 mg/L (≈ 1.46 µM); MIC [6, 8]: 0.5 mg/L (≈ 2.92 µM); MIC [6, 9]: 0.5 mg/L (≈ 2.92 µM); MIC [6, 10]: 0.5 mg/L (≈ 2.92 µM); MIC ([7]; Desulfovibrio desulfuricans, APISW2, 24 h, read-out: Minimal Inhibitory Concentration): 0.25 mg/L (≈ 1.46 µM); Minimal Inhibitory Concentration ([7]; Test 2): 0.25 mg/L; Minimal Inhibitory Concentration ([7]; Test 3): 0.25 mg/L
Cl.Clc1ccc(NN=C(Cn2ccnc2)c2ccccc2Cl)c(Cl)c1 [HC316, 1-(2-Chlorophenyl)-2-(1H-imidazol-1-yl)ethanone, 2,4-dichlorophenylhydrazone, hydrochloride]	56.2 percentage of control	46.5 percentage of control	0.8 mg/L	1 mg/L	2.5 mg/L	2.5 mg/L	2.5 mg/L	2.5 mg/L	2.5 mg/L	2.5 mg/L	2.5 mg/L	2.5 mg/L	50 mg/L	50 mg/L	50 mg/L	
